Patent US8258119B2, “Anti-cancer drugs and uses relating thereto for metastatic malignant melanoma and other cancers” (Kasina Laila Innova Pharmaceuticals, priority 2008, dated 2012)
Values after ≈ are worked out from the molar mass of the structure shown.

Columns and labels:
[1] = system: A375 human melanoma cells; experiment: LDH leakage cytotoxicity assay in A375 cells; assay type: cell-based; conditions: treatment concentration 100 μg/ml
Method: From the data obtained from the MTT assay (Table J), compound 1, compound 6 and compound 13 have been selected and their cytotoxicity potential has been further validated in LDH leakage assay. […] Cytotoxicity potential of DTIC and its derivative compounds were evaluated by measuring the leaked lactate dehydrogenase (LDH) into the culture supernatant (LDH Cytotoxicity Detection Roche Applied Sciences, Germany). The leaked LDH is directly proportional to the cell damage done by the cytotoxic compounds. In brief, cells were treated with test compounds at various concentrations and incubated for 48 h. Vehicle control culture wells received only a maximum of 0.5% DMSO. The cell free culture supernatants were mixed with catalyst and dye solution and allowed to incubate for 15 min at room temperature. Finally, the reaction was stopped and the optical density was measured at 492 nm in a microplate reader (BioRad, USA). […]
Comparative cytotoxicity potential of DTIC and Compound 6 on B16F0 mouse melanoma cells and A375 human melanoma cells were further evaluated by measuring the leaked lactate dehydrogenase (LDH) into the culture supernatant (LDH Cytotoxicity Detection Kit^Plus, Roche Applied Sciences, Germany), following the methodology described earlier (Example 20). […]

[2] = system: MCF-7 human breast tumor cells; experiment: MTT cell proliferation assay in MCF-7 cells; assay type: cell-based; conditions: MCF7, read-out: 50% of inhibitory concentration, IC50 MCF-7
Method: (§1) MTT [3-(4,5-dimethylthiazol-2-yl)-2,5-diphenyltetrazolium bromide] incorporation based cell proliferation assay was performed using standard procedure with some modifications (38). The cytotoxic efficacy of the test compounds were evaluated in human malignant melanoma A2058 cells by MTT cell proliferation assay kit (Roche Applied Sciences, Germany). The assay was carried out according to the instruction provided by the vendor. Briefly, equal numbers of cells was plated in 96-well flat-bottomed plates in 100 μl of medium and were exposed to either DTIC or its derivative compounds at various concentrations up to 150 μg/ml for a period of three days. Vehicle control culture wells received only a maximum of 0.5% DMSO. Thereafter, 0.5 mg/ml of MTT reagent was added to each well and the microplate was incubated further for 4 h at 37° C. in presence of 5% CO2. Finally, the cells were solubilized by adding solubilizing solution and allowed to incubate at 37° C. overnight. After complete solubilization of the formazan crystals the absorbance was read at 540 nm in a microplate reader (BioRad, USA). The results (mean OD±SD) obtained from quadruplicate wells were used in calculation to determine the inhibition of cell proliferation (50% inhibitory concentration, IC50) of the test compounds.
(§2) Anti-tumor growth potential of Compound 1 and Compound 6 were evaluated in MCF-7 human breast tumor cells, MIA-PaCa2 human pancreas tumor cells and DU145 human prostate tumor cells by using MTT based cell proliferation studies as described earlier (example 19). The results (mean OD±SD) obtained from quadruplicate wells were used in calculation to determine the inhibition of cell proliferation (50% of inhibitory concentration, IC50) of the test compounds (Table 4).

[3] = system: B16 F0 melanoma; experiment: B16 F0 melanoma xenograft model of C57B6J mice; assay type: in vivo; conditions: for dose response of tumor growth inhibition: two dose levels (50 and 100 mg/kg), intra-peritoneal
Method: […] mice of 6 weeks age (body weight 18-22 g) were purchased from National Institute of Nutrition (NIN), Hyderabad (India). Animals study protocols were approved by Institutional Ethics Committee (IAEC). All the studies were performed in compliance with the Committee for the Purpose of Control and Supervision of Experiments on Animals (CPCSEA) guidelines and OECD guidelines. Animals were allowed free access to standard feed and provided charcoal filtered and UV exposed water ad libitum. The animals were maintained at a controlled temperature (24-26° C.), humidity (45-70%), and 12 h/12 h of light/dark cycle. To induce the melanoma tumor formation, sub-confluent B16F0 cells were harvested by brief trypsinization and 1×10^6 cells were injected subcutaneously in 0.2 ml phosphate-buffered saline. Drug treatment was started after development of palpable tumors (3-5 days after implantation of the cells). […] After fourteen days of treatment, the animals were sacrificed by CO2 inhalation and tumors were excised and weighed.

[4] = system: metastatic malignant melanoma; conditions: clinical setting; cited from earlier work
[5] = system: DU145 human prostate tumor cells; experiment: MTT cell proliferation assay in DU145 cells; assay type: cell-based; conditions: DU-145, read-out: 50% of inhibitory concentration, IC50 DU145
Method: as §1, §2

[6] = system: A375 human melanoma cells; experiment: MTT cell proliferation assay in A375 cells; assay type: cell-based; conditions: A-375, 72 h, 3 days, read-out: 50% of inhibitory concentration, IC50 in A375 cells
Method: as §1, with “Thereafter, 0.5 mg/ml of MTT reagent was added to each well and the microplate was incubated further for 4 h at 37° C. in presence of 5% CO2. Finally, the cells were solubilized by adding solubilizing solution and allowed to incubate at 37° C. overnight.” left out, “The results (mean OD±SD) obtained from quadruplicate wells were used in calculation to determine the inhibition of cell proliferation (50% inhibitory concentration, IC50) of the test compounds.” left out
The comparative anti-tumor growth potential of DTIC and Compound 6 was further tested in B16F0 mouse melanoma cells and A375 human melanoma cells by using MTT based cell proliferation assay following the methodology described earlier (Example 19). […] After adding the MTT reagent, the cells were solubilized and the intracellular formazan formation was calorimetrically read at 540 nm in a microplate reader (BioRad, USA). […]

IC50 [2]	IC50 [5]	IC50 [6]	Structure (SMILES)	% increase in LDH secretion with respect to vehicle treated control in A375 cells [1]	dose response of tumor growth inhibition [3]	Complete Response (CR) rate [4]	anti-tumor activity ([3]; daily intra-peritoneal, fourteen days, tumor weight)
135 µg/mL (≈ 742 µM)	87.2 µg/mL (≈ 479 µM)	–	CN(C)/N=N/c1[nH]cnc1C(N)=O [DTIC, 5-(3,3-dimethyl-1-trizeno)-imidazole-4-carboxamide, reference compound]	246%	failed to show statistically significant dose response	below 10%	–
91.7 µg/mL (≈ 460 µM)	62.6 µg/mL (≈ 314 µM)	46.5 µg/mL (≈ 233 µM)	CN(C)/N=N/c1ccsc1C(=O)O [Compound 6, 3-[(dimethylamino)diazenyl]thiophene-2-carboxylic acid]	331%	dose response inhibition at the two dose levels tested	–	better anti-tumor activity than DTIC
